Experiments:
[1] = tested on: marijuana variety Lemon Creamsicle; assay: Foliar spray of CJ or MDJ on high-THC marijuana in greenhouse, cannabinoid analysis; type: in vivo, Cannabis spp.; settings: 7.5 mM foliar spray every 14 days, four treatments
Experimental: Applicant's previous experiments investigated the effects of jasmonate-type elicitors MeJA, MDJ, and CJ on hemp (high fiber) and high-CBD, (low-THC) varieties of Cannabis. […] Here, the effects of MDJ and CJ application on a high-THC variety in a controlled environment was investigated. High-THC, low-CBD marijuana variety “Lemon Creamsicle” (LC), was grown in a greenhouse setting. LC was used as a plant model due to its historically consistent metabolite profile in the greenhouse environment, making it a stable, known, and reliable variety.
A four-block plant trial was implemented with a population of N=12 plants and treatment group sizes of n=4. The treatment and control groups were defined as follows: Control=water+0.1% TWEEN®-20 aqueous foliar spray, Treatment 1=[7.5 mM] CJ+0.1% TWEEN®-20 aqueous foliar spray, Treatment 2=[7.5 mM] MDJ+0.1% TWEEN®-20 aqueous foliar spray. A standardized concentration of [7.5 mM] for both CJ and MDJ applications was chosen due to its performance in Applicant's past research. All treatment solutions were prepared the day of the application in equal volumes from pre-measured quantities of the stock materials to ensure consistency, i.e., appropriate volumes of CJ or MDJ were combined with appropriate volumes of TWEEN®-20 for each experimental treatment, stored in a sealed centrifuge tube, and diluted in the appropriate amount of water immediately prior to application. Separate sprayers were used for each treatment and control sprays to avoid cross-contamination.
All plants in the trial were produced as asexual clone stock taken from the same mother plant at the same time to ensure homogeneity. All plants were rooted and grown in accordance with the production practices typical to this greenhouse operator prior to plant selection for the experiment. Due to the layout of the cultivation system, which features immovable hydroponic “pots” that house the plant throughout the entire flowering (i.e., reproductive) phase, all plants included in the experiment were selected from a set section of the greenhouse after final transplant into the hydroponic system and grouped in a complete randomized block design accordingly.
After defining the plants to include in the experiment, which were organized in two (2) rows of six (6) plants side-by-side in the hydroponic system, the experimental blocks were defined as groups of three plants, and a research randomizer tool (randomizer.org) was used to generate a randomized arrangement of plants in each group. Using a blocked design in this setting helped account for the immovable nature of the plants and the slight, if any, environmental differences (like natural sunlight, shading from other plants, and corner/edge effect) that existed in the small experimental area. Blocking the experimental arrangement also allowed for improved statistical analysis and resolution considering the small sample size and close proximity of the experimental plants.
After labelling each plant in the experiment with the appropriate group label (Control, T1 [CJ], or T2 [MDJ]), the plants were allowed to grow normally between treatment applications, which were performed every 14 days for a total of four (4) treatments throughout the flowering cycle, which lasted approximately eight (8) weeks. The first treatment occurred seven (7) days after the onset of the flowering cycle, which was dictated by day-length control. Care was taken with each treatment application to minimize overspray onto non-target neighboring plants, and physical barriers were temporarily installed between plants during treatment sprays to aid in this effort. These barriers were removed following treatment sprays when the foliage was no longer visibly wet from the treatment and/or control foliar sprays. […]

[2] = tested on: seedling mold; assay: Fungal plug growth on jasmonate-infused PDA plates; type: cell-based, Trichoderma ghanense; settings: all concentrations (1 mM, 4.25 mM, 10 mM) in PDA; 72 hours and 10 days
Experimental: (§1) MDJ (TCI, CAS No.: 24851-98-7) and CJ were infused into potato dextrose agar (PDA, VWR Cat No.: 90003-494) petri dishes (100×15 mm VWR, Cat No: 25384-094) at concentrations ranging from 1 mM, 4.25 mM, and 10 mM. Each treatment was prepared using a technical grade stock solution of pure chemical (CJ or MDJ) diluted with TWEEN®-20 (VWR, CAS No.: […]). Culturable oyster mushroom and seedling mold served to create fungal mycelial plugs using a sterile 1 mL pipette tip (Eppendorf, Cat No.: 022491458) held upside down. The tips were used to make circle excisions (i.e., fungal plugs) from a mycelial mat grown on PDA with no biochemical infusions. Fungal pugs were then transferred to PDA infused with varying concentrations of CJ or MDJ, and control plates (no CJ or MDJ infusion) to monitor fungal growth at room temperature over time.
To compare the efficacy of MDJ and MeJA at inhibiting the same seedling mold as used in the experiment above, a second experiment was conducted using PDA plates infused with either MDJ or MeJA at different concentrations. All plates were generated and inoculated as described above and incubated at room temperature under identical conditions. Shown in FIGS. 9A-9C are plates of seedling mold 72 hours post fungal inoculation. Control plates are shown on the top row, followed by concentrations of MeJA (left) and MDJ (right) in duplicate at 1 mM (FIG. 9A), 4.25 mM (FIG. 9B), and 10 mM (FIG. 9C). […] Subsequent sequence analysis identified the “seedling mold” as Trichoderma ghanense.

[3] = tested on: oyster mushroom; assay: Fungal plug growth on jasmonate-infused PDA plates; type: cell-based; settings: all concentrations (1 mM, 4.25 mM, 10 mM) in PDA; 72 hours and 10 days
Experimental: as §1

[4] = tested on: high-CBD hemp varieties Stormy Daniels and BaOX; assay: Field foliar applications of MDJ, MeJA and CJ on high-CBD hemp, cannabinoid analysis; type: in vivo, Cannabis spp.; settings: 7.5 mM foliar, four applications every 14 days in flowering
Experimental: However, MDJ is not known to have any significant bioactivity in planta and is not an endogenously produced phytohormone in cannabis, so it was unknown whether MDJ would afford the same functionality as MeJA. Similarly, CJ has likewise been relatively under-investigated as a plant elicitor despite being a decarboxylation product of Jasmonic Acid. Here, the effect of MDJ and CJ were analyzed (in addition to MeJA) in order to determine any difference in the effect of these treatments on field-grown high-CBD hemp varieties.
A hemp field experiment was conducted during the flowering phase of plant development in a private research field located in North Carolina. Sixty (60) plants from two distinct plant variety populations, Stormy Daniels and BaOX were selected for the trial. Each group of 60 plants was randomly divided into three groups of 20 plants and labeled accordingly to indicate the treatment group (T1, T2, T3). All plants were cultivated identically and subjected to approximately the same environmental conditions. Control, untreated plants were taken from the same field. Plants were treated according to treatment group, and each treatment group was subjected to four (4) applications of its respective treatment, with the first treatments applied on what was considered to be the first day of the flowering phase and repeated then again every successive 14 days up until just prior to harvest. Treatments were as follows: Control group=Control, Treatment 1=MDJ, Treatment 2=MeJA, Treatment 3=CJ.
All treatments were prepared in a stock (concentrated, non-aqueous) form by Impello Biosciences in their lab in Loveland, Colo. and labelled respectively prior to the start of the experiment. All treatments were prepared at a high stock concentration that allowed dilution by the applicator with 2 liters of water to a final 7.5 mM concentration of active ingredient (i.e., MeJA, MDJ, or CJ) for each treatment; 15-mL centrifuge tubes were used as preparation and storage vessels for each of the treatments. Preparation of the stock solutions ensured that the applicator could store the solutions prior to use at 4° C. to minimize degradation and allow for dilution immediately prior to use. In the stock containers, 2 mL of TWEEN®-20 was added to each respective elicitor compound as an emulsifier in order to reach a final oil-in-water emulsion once diluted with a concentration of 7.5 mM active ingredient and 0.1% surfactant (i.e., TWEEN®-20) v/v.
Plants were grown to maturity and 5 plants from each treatment and control group were sampled on Sep. 23, 2019. Care was taken to ensure samples were similar in appearance and spatial location between plants to minimize unintended variance in sample quality. The apical cola for each plant was harvested, and specifically, the top 3″ of the main cola. Yield data was not collected in this study, but no obvious differences in plant size or appearance were noted. Samples were submitted for chemical analysis (Avazyme, Inc, NC).
All models were linear models fit with Group (treatment) as the independent variable and the response variable was the corresponding compound. Data was filtered and comparison between treatments were conducted using the emmeans package and Tukey HSD for post-hoc corrections. Statistical significance was defined by a level of significance of p<0.05 in the Tukey test. Total cannabinoids included CBN, Δ9-THC, CBDV, CBG, CBD, CBC, CBDA, CBGA, THCA, and THCV. Total THC and total CBD were calculated by accounting for the additional weight of the carboxyl group in the acidic forms and adding those to the neutral/non-acidic forms.

**Q.** For `CC/C=C\CC1=C(C)CCC1=O` [CJ, cis-jasmone], which “CBGA average relative percent increase compared to the Control group” value [1] is on record?
**A.** Its value is 11.22%.

**Q.** And the “THCA average relative percent increase compared to the Control group” value [1]?
**A.** The value was 1.13%.

**Q.** What about the “Total Cannabinoids average relative percent increase compared to the Control group” value [1] of the same compound?
**A.** The value was 1.17%.

**Q.** What about the “Total THC average relative percent increase compared to the Control group” value [1] of the same compound?
**A.** Its value is 1.03%.

**Q.** And the “seedling mold growth compared to control” value [2]?
**A.** The value was “showed inhibition”.

**Q.** And the “Oyster mushroom fungal growth compared to control” value [3]?
**A.** Its value is “showed inhibition”.

**Q.** What about the “CBDA increase relative to the control group” value [4] of the same compound?
**A.** The value was 23.61%.

**Q.** What about the “THCA increase relative to the control group” value [4] of the same compound?
**A.** The value was 27.23%.

**Q.** What about the “Total CBD increase relative to the control group” value [4] of the same compound?
**A.** The value was 23.64%.

**Q.** What about the “Total Cannabinoids increase relative to the control group” value [4] of the same compound?
**A.** The value was 22.92%.

**Q.** And the “Total THC increase relative to the control group” value [4]?
**A.** The value was 27.09%.

Source: patent US11638427B2, “Methods and compositions for altering secondary metabolites in plants” (Impello Biosciences, Inc, priority 2020, dated 2023)
